Measured values as given in publication PMC8994735 (Targeted Oncology, 2021).
“Also recorded” adds a separate entry of the source. Read-outs that look alike come from different tables or passages of the source.

Experiments:
[1] = Plasma pharmacokinetics; format: in vivo, human; conditions: for AUC / Cmax / half-life / Tmax: human, oral; for Cmax: Mean Cmax
[2] = tested on: Western patients; conditions: cited from earlier work
[3] = tested on: nonhematologic malignancies/solid tumors, endometrial cancer; conditions: phase 2 study in endometrial cancer; single-agent 30 mg QW; cited from earlier work

CC(C)n1nc(-c2ccc3oc(N)nc3c2)c2c(N)ncnc21 [sapanisertib]
Accumulation in plasma ([1]; QD or QW, any dose level): did not accumulate in plasma to any appreciable extent | Dose dependence of plasma exposure (AUC and Cmax) ([1]; across all doses): increased linearly across all doses; also recorded: generally linear, dose-dependent | Time at which peak plasma concentrations were achieved post-dose ([1]; cycle 1 day 1, single dose, both QD and QW arm): 0.5 to 2.0 h | Geometric mean accumulation ratio of AUC168 ([1]; cycle 1 day 15, 20 mg QW): 1.14 | Geometric mean accumulation ratio of Cmax ([1]; cycle 1 day 15, 20 mg QW): 0.72 | Geometric mean accumulation ratio of AUC168 ([1]; cycle 1 day 15, 30 mg QW): 1.47 | Geometric mean accumulation ratio of Cmax ([1]; cycle 1 day 15, 30 mg QW): 1.36 | Time at which peak plasma concentrations were achieved post-dose ([1]; cycle 1 day 15, QD arm): 0.5 to 3.0 h | Time at which peak plasma concentrations were achieved post-dose ([1]; cycle 1 day 15, QW arm): 0.5 to 4.1 h | Geometric mean accumulation ratio of Cmax ([1]; cycle 1 day 15, across all QD dose levels): 0.93–1.30 | AUC ([1]; plasma, Mean AUC24, cycle 1 day 15, QD dosing): 237 to 366 ng·h/mL | AUC ([1]; plasma, Mean AUC from 0–24 h (AUC24), cycle 1 day 1, across QD doses): 138 to 315 ng·h/mL | Cmax ([1]; plasma, cycle 1 day 1, across all QD doses): 23.9 to 56.9 ng/mL | Cmax ([1]; plasma, cycle 1 day 15, across all QD doses): 33.4 to 57.2 ng/mL | half-life ([1]; plasma, Mean plasma elimination half-life, cycle 1 day 1, across all QD doses): 6 to 6.8 h | half-life ([1]; plasma, Mean plasma elimination half-life, cycle 1 day 15, across all QD doses): 5.24 to 9.2 h | Tmax ([1]; plasma, Median Tmax, cycle 1 day 1, across all QD doses): 0.5 to 1 h | Tmax ([1]; plasma, Median Tmax, cycle 1 day 15, across all QD doses): 1 to 1.5 h | half-life ([1]; plasma, T1/2, overall, as summarised in the abstract): 5.9 to 7.6 h | Tmax ([1]; plasma, Tmax, across all doses in both arms): 0.5 to 2.6 h | Cmax, mean (sd) ([1]; plasma, cycle 1 day 15, QW dose escalation 20 mg, n 3): 207.5 ng/mL | RP2D in Western patients ([2]; QD, Western patient populations): 4 mg | Lowest RP2D in previous studies in Western patients ([2]; QD): 4 mg | Lowest RP2D in previous studies in Western patients ([2]; QW): 30 mg | Pre-defined futility threshold [3]: did not meet a pre-defined futility threshold
